In the NIST ThermoML archive (doi:10.1016/j.jct.2011.07.008):

Legend:
[1] = refractive index (Na D-line) (dimensionless); conditions: 298.15 K; 101.33 kPa; Liquid; Standard Abbe refractometry
[2] = 298.15 K; 101.33 kPa; Liquid; Pycnometric method
[3] = mn = molality of the nth substance listed, in mol/kg; conditions: 101 kPa, Liquid; for viscosity: Capillary tube (Ostwald / Ubbelohde) method

COCCOCCO [2-(2-methoxyethoxy)ethanol]
Conditions | mass density [kg/m3] | refractive index
[1] | – | 1.4245
[2] | 1014.39 | –

COCCOCCO [2-(2-methoxyethoxy)ethanol] + O
[3]
Conditions | viscosity [mPa·s]
275.15 K, m1 = 0.0099 | 1.004
275.15 K, m1 = 0.0209 | 1.009
275.15 K, m1 = 0.0309 | 1.014
275.15 K, m1 = 0.0396 | 1.018
275.15 K, m1 = 0.052 | 1.023
275.15 K, m1 = 0.061 | 1.028
275.15 K, m1 = 0.0706 | 1.032
275.15 K, m1 = 0.0799 | 1.037
275.15 K, m1 = 0.093 | 1.044
275.15 K, m1 = 0.1057 | 1.05
283.15 K, m1 = 0.0109 | 1.004
283.15 K, m1 = 0.0191 | 1.008
283.15 K, m1 = 0.0303 | 1.012
283.15 K, m1 = 0.0406 | 1.016
283.15 K, m1 = 0.0487 | 1.02
283.15 K, m1 = 0.0599 | 1.024
283.15 K, m1 = 0.0709 | 1.029
283.15 K, m1 = 0.0806 | 1.033
283.15 K, m1 = 0.09 | 1.037
283.15 K, m1 = 0.0901 | 1.037
283.15 K, m1 = 0.1009 | 1.041

[3]
Conditions | mass density [kg/m3]
275.15 K, Pycnometric method, m1 = 0.0099 | 1000.07
275.15 K, Pycnometric method, m1 = 0.0209 | 1000.18
275.15 K, Pycnometric method, m1 = 0.0309 | 1000.32
275.15 K, Pycnometric method, m1 = 0.0396 | 1000.42
275.15 K, Pycnometric method, m1 = 0.052 | 1000.56
275.15 K, Pycnometric method, m1 = 0.061 | 1000.66
275.15 K, Pycnometric method, m1 = 0.0706 | 1000.76
275.15 K, Pycnometric method, m1 = 0.0799 | 1000.86
275.15 K, Pycnometric method, m1 = 0.093 | 1000.98
275.15 K, Pycnometric method, m1 = 0.1057 | 1001.12
283.15 K, Buoyancy - hydrostatic balance with magnetic suspension - one sinker, m1 = 0.0109 | 999.8
283.15 K, Buoyancy - hydrostatic balance with magnetic suspension - one sinker, m1 = 0.0191 | 999.93
283.15 K, Buoyancy - hydrostatic balance with magnetic suspension - one sinker, m1 = 0.0303 | 1000.04
283.15 K, Buoyancy - hydrostatic balance with magnetic suspension - one sinker, m1 = 0.0406 | 1000.11
283.15 K, Buoyancy - hydrostatic balance with magnetic suspension - one sinker, m1 = 0.0487 | 1000.17
283.15 K, Buoyancy - hydrostatic balance with magnetic suspension - one sinker, m1 = 0.0599 | 1000.27
283.15 K, Buoyancy - hydrostatic balance with magnetic suspension - one sinker, m1 = 0.0709 | 1000.38
283.15 K, Buoyancy - hydrostatic balance with magnetic suspension - one sinker, m1 = 0.0806 | 1000.47
283.15 K, Buoyancy - hydrostatic balance with magnetic suspension - one sinker, m1 = 0.09 | 1000.56
283.15 K, Buoyancy - hydrostatic balance with magnetic suspension - one sinker, m1 = 0.0901 | 1000.59
283.15 K, Buoyancy - hydrostatic balance with magnetic suspension - one sinker, m1 = 0.1009 | 1000.68

CCOCCO [2-ethoxyethan-1-ol]
Conditions | mass density [kg/m3] | refractive index
[1] | – | 1.4057
[2] | 925.05 | –

CCOCCO [2-ethoxyethan-1-ol] + O
[3]
Conditions | viscosity [mPa·s]
275.15 K, m1 = 0.0102 | 1.005
275.15 K, m1 = 0.0202 | 1.01
275.15 K, m1 = 0.0294 | 1.015
275.15 K, m1 = 0.0459 | 1.025
275.15 K, m1 = 0.0502 | 1.028
275.15 K, m1 = 0.0602 | 1.035
275.15 K, m1 = 0.071 | 1.042
275.15 K, m1 = 0.0818 | 1.05
275.15 K, m1 = 0.0902 | 1.057
275.15 K, m1 = 0.1008 | 1.065
283.15 K, m1 = 0.0067 | 1.002
283.15 K, m1 = 0.0191 | 1.006
283.15 K, m1 = 0.0303 | 1.01
283.15 K, m1 = 0.0392 | 1.014
283.15 K, m1 = 0.0492 | 1.018
283.15 K, m1 = 0.0598 | 1.022
283.15 K, m1 = 0.0682 | 1.026
283.15 K, m1 = 0.0799 | 1.032
283.15 K, m1 = 0.0885 | 1.036
283.15 K, m1 = 0.0906 | 1.037
283.15 K, m1 = 0.0996 | 1.042
283.15 K, m1 = 0.1004 | 1.043

[3]
Conditions | mass density [kg/m3]
275.15 K, Pycnometric method, m1 = 0.0102 | 999.95
275.15 K, Pycnometric method, m1 = 0.0202 | 999.95
275.15 K, Pycnometric method, m1 = 0.0294 | 999.95
275.15 K, Pycnometric method, m1 = 0.0459 | 999.96
275.15 K, Pycnometric method, m1 = 0.0502 | 999.96
275.15 K, Pycnometric method, m1 = 0.0602 | 999.97
275.15 K, Pycnometric method, m1 = 0.071 | 1000
275.15 K, Pycnometric method, m1 = 0.0818 | 1000
275.15 K, Pycnometric method, m1 = 0.0902 | 1000.01
275.15 K, Pycnometric method, m1 = 0.1008 | 1000.03
283.15 K, Buoyancy - hydrostatic balance with magnetic suspension - one sinker, m1 = 0.0067 | 999.7
283.15 K, Buoyancy - hydrostatic balance with magnetic suspension - one sinker, m1 = 0.0191 | 999.71
283.15 K, Buoyancy - hydrostatic balance with magnetic suspension - one sinker, m1 = 0.0303 | 999.71
283.15 K, Buoyancy - hydrostatic balance with magnetic suspension - one sinker, m1 = 0.0392 | 999.74
283.15 K, Buoyancy - hydrostatic balance with magnetic suspension - one sinker, m1 = 0.0492 | 999.72
283.15 K, Buoyancy - hydrostatic balance with magnetic suspension - one sinker, m1 = 0.0598 | 999.72
283.15 K, Buoyancy - hydrostatic balance with magnetic suspension - one sinker, m1 = 0.0682 | 999.73
283.15 K, Buoyancy - hydrostatic balance with magnetic suspension - one sinker, m1 = 0.0799 | 999.73
283.15 K, Buoyancy - hydrostatic balance with magnetic suspension - one sinker, m1 = 0.0885 | 999.73
283.15 K, Buoyancy - hydrostatic balance with magnetic suspension - one sinker, m1 = 0.0906 | 999.73
283.15 K, Buoyancy - hydrostatic balance with magnetic suspension - one sinker, m1 = 0.0996 | 999.76
283.15 K, Buoyancy - hydrostatic balance with magnetic suspension - one sinker, m1 = 0.1004 | 999.78

COCCO [2-methoxyethan-1-ol]
Conditions | mass density [kg/m3] | refractive index
[1] | – | 1.4003
[2] | 959.03 | –
